According to ChEMBL document CHEMBL3272010, “Antimycotic imidazoles. 3. Synthesis and antimycotic properties of 1-[2-(aryloxyalkyl)-2-phenylethyl]-1H-imidazoles” (1977):
Calls of active or inactive are those of the source. The rule behind the calls is not given here.

Tests used:
[1] = tested on: Trichophyton mentagrophytes; assay: Antifungal activity against Trichophyton mentagrophytes assessed as lowest dose required to total inhibition of fungal growth; type: functional
[2] = tested on: Saprolegnia; assay: Antifungal activity against Saprolegnia species assessed as lowest dose required to total inhibition of fungal growth; type: functional
[3] = tested on: Aspergillus fumigatus; assay: Antifungal activity against Aspergillus fumigatus assessed as lowest dose required to total inhibition of fungal growth; type: functional
[4] = tested on: Phialophora verrucosa; assay: Antifungal activity against Phialophora verrucosa assessed as lowest dose required to total inhibition of fungal growth; type: functional
[5] = tested on: Trichophyton rubrum; assay: Antifungal activity against Trichophyton rubrum assessed as lowest dose required to total inhibition of fungal growth; type: functional
[6] = tested on: Candida albicans; assay: Antifungal activity against Candida albicans assessed as lowest dose required to total inhibition of fungal growth; type: functional
[7] = tested on: Candida tropicalis; assay: Antifungal activity against Candida tropicalis assessed as lowest dose required to total inhibition of fungal growth; type: functional
[8] = tested on: Streptococcus pyogenes; assay: Antibaterial activity against Streptococcus pyogenes assessed as lowest dose required to total inhibition of bacterial growth; type: functional
[9] = tested on: Staphylococcus haemolyticus; assay: Antibaterial activity against Staphylococcus haemolyticus assessed as lowest dose required to total inhibition of bacterial growth; type: functional
[10] = tested on: Candida albicans; assay: Antifungal activity against Candida albicans infected in guinea pig at 10 mg/kg, po qd; type: functional, organism-based; set-up: dose 10 mg/kg
[11] = tested on: Cryptococcus neoformans; assay: Antifungal activity against Cryptococcus neoformans assessed as lowest dose required to total inhibition of fungal growth; type: functional
[12] = tested on: Microsporum canis; assay: Antifungal activity against Microsporum canis assessed as lowest dose required to total inhibition of fungal growth; type: functional
[13] = tested on: Sporothrix schenckii; assay: Antifungal activity against Sporothrix schenckii assessed as lowest dose required to total inhibition of fungal growth; type: functional
[14] = tested on: Erysipelothrix rhusiopathiae; assay: Antibaterial activity against Erysipelothrix insidiosa assessed as lowest dose required to total inhibition of bacterial growth; type: functional
[15] = tested on: Mucor; assay: Antifungal activity against Mucor species assessed as lowest dose required to total inhibition of fungal growth; type: functional

## Clc1ccc(C(CCOc2ccccc2Cl)Cn2ccnc2)c(Cl)c1.O=C(O)C(=O)O (stereo not given)
[1]
  GI: <1 µg/mL
[2]
  GI: 100 µg/mL
[3]
  GI: >100 µg/mL
[4]
  GI: 100 µg/mL
[5]
  GI: <1 µg/mL
[6]
  GI: >100 µg/mL
[7]
  GI: >100 µg/mL
[8]
  GI: <1 µg/mL
[9]
  GI: 1 µg/mL
[10]
  Activity: inactive
[11]
  GI: <1 µg/mL
[12]
  GI: 10 µg/mL
[13]
  GI: 10 µg/mL
[14]
  GI: <1 µg/mL
[15]
  GI: >100 µg/mL

## Clc1ccc(OCCC(Cn2ccnc2)c2ccc(Cl)cc2Cl)c(Cl)c1.O=C(O)C(=O)O (stereo not given)
[1]
  GI: <1 µg/mL
[2]
  GI: 100 µg/mL
[3]
  GI: 100 µg/mL
[4]
  GI: 100 µg/mL
[5]
  GI: <1 µg/mL
[6]
  GI: 100 µg/mL
[7]
  GI: >100 µg/mL
[8]
  GI: <1 µg/mL
[9]
  GI: 1 µg/mL
[10]
  Activity: Active
[11]
  GI: <1 µg/mL
[12]
  GI: 10 µg/mL
[13]
  GI: 100 µg/mL
[14]
  GI: <1 µg/mL
[15]
  GI: 100 µg/mL

## Clc1ccc(C(CCCOc2ccc(Br)cc2)Cn2ccnc2)c(Cl)c1.O=C(O)C(=O)O (stereo not given)
[1]
  GI: <1 µg/mL
[2]
  GI: 100 µg/mL
[3]
  GI: >100 µg/mL
[4]
  GI: 100 µg/mL
[5]
  GI: 10 µg/mL
[6]
  GI: >100 µg/mL
[7]
  GI: >100 µg/mL
[8]
  GI: <1 µg/mL
[9]
  GI: 10 µg/mL
[10]
  Activity: inactive
[11]
  GI: 10 µg/mL
[12]
  GI: 100 µg/mL
[13]
  GI: 100 µg/mL
[14]
  GI: <1 µg/mL
[15]
  GI: >100 µg/mL

## Clc1ccc(C(CCOc2ccccc2)Cn2ccnc2)c(Cl)c1.O=C(O)C(=O)O (stereo not given)
[1]
  GI: <1 µg/mL
[2]
  GI: 100 µg/mL
[3]
  GI: 100 µg/mL
[4]
  GI: 100 µg/mL
[5]
  GI: <1 µg/mL
[6]
  GI: 10 µg/mL
[7]
  GI: 100 µg/mL
[8]
  GI: 1 µg/mL
[9]
  GI: 10 µg/mL
[10]
  Activity: inactive
[11]
  GI: <1 µg/mL
[12]
  GI: 10 µg/mL
[13]
  GI: 10 µg/mL
[14]
  GI: 1 µg/mL
[15]
  GI: 100 µg/mL

## Fc1ccc(OCCC(Cn2ccnc2)c2ccc(Cl)cc2Cl)cc1.O=C(O)C(=O)O (stereo not given)
[1]
  GI: <1 µg/mL
[2]
  GI: 10 µg/mL
[3]
  GI: 100 µg/mL
[4]
  GI: 100 µg/mL
[5]
  GI: <1 µg/mL
[6]
  GI: 10 µg/mL
[7]
  GI: >100 µg/mL
[8]
  GI: 1 µg/mL
[9]
  GI: 10 µg/mL
[10]
  Activity: Active
[11]
  GI: <1 µg/mL
[12]
  GI: 10 µg/mL
[13]
  GI: 10 µg/mL
[14]
  GI: <1 µg/mL
[15]
  GI: 100 µg/mL

## Clc1ccc(OCCCC(Cn2ccnc2)c2ccc(Cl)cc2Cl)cc1.O=C(O)C(=O)O (stereo not given)
[1]
  GI: <1 µg/mL
[2]
  GI: 10 µg/mL
[3]
  GI: 100 µg/mL
[4]
  GI: 100 µg/mL
[5]
  GI: <1 µg/mL
[6]
  GI: >100 µg/mL
[7]
  GI: >100 µg/mL
[8]
  GI: <1 µg/mL
[9]
  GI: 1 µg/mL
[10]
  Activity: inactive
[11]
  GI: 10 µg/mL
[12]
  GI: 10 µg/mL
[13]
  GI: <1 µg/mL
[14]
  GI: <1 µg/mL
[15]
  GI: >100 µg/mL
